Laboratory results published in patent publication US9234000B2, “Benzylamine derivatives as inhibitors of plasma kallikrein” (KalVista Pharmaceuticals Limited, priority 2011, dated 2016).

Tests used:
Human plasma kallikrein = Human plasma kallikrein (Homo sapiens (Human), UniProt P03952); experiment: Determination of the IC50 for plasma kallikrein; assay type: biochemical; details: 37° C., substrate H-DPro-Phe-Arg-AFC, read-out: IC50 (human PKal)
Method: Determination of the IC50 for Plasma Kallikrein
(§1) Plasma kallikrein inhibitory activity in vitro was determined using standard published methods (see e.g. Johansen et al., Int. J. Tiss. Reac. 1986, 8, 185; Shori et al., Biochem. Pharmacol., 1992, 43, 1209; Stiirzebecher et al., Biol. Chem. Hoppe-Seyler, 1992, 373, 1025). Human plasma kallikrein (Protogen) was incubated at 37° C. with the fluorogenic substrate H-DPro-Phe-Arg-AFC and various concentrations of the test compound. Residual enzyme activity (initial rate of reaction) was determined by measuring the change in optical absorbance at 410 nm and the IC50 value for the test compound was determined.

Human KLK1 = Human KLK1 (Homo sapiens (Human), UniProt P06870); experiment: Determination of the IC50 for KLK1; assay type: biochemical; details: Human KLK1, 37° C., substrate H-DVal-Leu-Arg-AFC; Table 13
Sequence of Human KLK1 (P06870 25-262): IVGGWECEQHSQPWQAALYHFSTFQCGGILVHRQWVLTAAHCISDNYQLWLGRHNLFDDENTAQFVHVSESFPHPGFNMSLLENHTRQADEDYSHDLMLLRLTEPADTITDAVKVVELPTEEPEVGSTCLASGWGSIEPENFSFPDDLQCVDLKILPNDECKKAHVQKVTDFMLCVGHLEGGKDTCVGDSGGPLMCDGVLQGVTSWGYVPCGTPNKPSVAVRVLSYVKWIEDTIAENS
Method: Determination of the IC50 for KLK1
as §1, with “KLK1” for “Plasma kallikrein”, “Stürzebecher” for “Stiirzebecher”, “KLK1 (Callbiochem)” for “plasma kallikrein (Protogen)”, “H-DVal-Leu-Arg-AFC” for “H-DPro-Phe-Arg-AFC”

Sequence of Human plasma kallikrein (P03952 391-638): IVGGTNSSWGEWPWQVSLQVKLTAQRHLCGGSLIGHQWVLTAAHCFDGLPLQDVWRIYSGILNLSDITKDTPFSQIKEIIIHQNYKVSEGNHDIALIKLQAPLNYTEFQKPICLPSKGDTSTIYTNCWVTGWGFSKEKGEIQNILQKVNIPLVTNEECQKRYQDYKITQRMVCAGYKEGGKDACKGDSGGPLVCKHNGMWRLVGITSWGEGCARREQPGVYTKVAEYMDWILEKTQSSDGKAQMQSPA
Sequence of Human plasma kallikrein (P03952 20-390 partner): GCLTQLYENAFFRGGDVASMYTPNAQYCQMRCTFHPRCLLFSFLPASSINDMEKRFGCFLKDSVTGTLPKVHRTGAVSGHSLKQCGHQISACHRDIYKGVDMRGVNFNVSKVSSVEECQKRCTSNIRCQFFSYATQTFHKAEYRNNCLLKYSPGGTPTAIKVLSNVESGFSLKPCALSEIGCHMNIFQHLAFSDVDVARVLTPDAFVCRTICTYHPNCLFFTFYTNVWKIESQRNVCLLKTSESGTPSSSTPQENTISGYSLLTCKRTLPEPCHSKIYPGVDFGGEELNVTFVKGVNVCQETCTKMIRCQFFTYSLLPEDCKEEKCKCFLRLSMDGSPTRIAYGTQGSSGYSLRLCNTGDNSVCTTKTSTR

Compound	IC50 (Human plasma kallikrein) [nM]	IC50 (Human KLK1) [nM]
CCCCCCNC(=O)N[C@H](Cc1ccc(OCC)cc1)C(=O)N[C@@H](Cc1ccccc1)C(=O)NCc1ccc(CN)cc1 [Example 78, (R)-N-[(S)-1-(4-Aminomethyl-benzylcarbamoyl)-2-phenyl-ethyl]-3-(4-ethoxy-phenyl)-2-(3-hexyl-ureido)-propionamide]	10000	> 10000
CCOc1ccc(C[C@@H](NC(=O)c2ccc(OC(F)(F)F)cc2)C(=O)N[C@@H](Cc2ccccc2)C(=O)NCc2ccc(CN)cc2)cc1 [Example 80, N-[(R)-1-[(S)-1-(4-Aminomethyl-benzylcarbamoyl)-2-phenyl-ethylcarbamoyl]-2-(4-ethoxy-phenyl)-ethyl]-4-trifluoromethoxy-benzamide]	398	> 10000
CCOc1ccc(C[C@@H](NC(=O)c2cc(C)nn2C)C(=O)N[C@@H](Cc2ccccc2)C(=O)NCc2ccc(CN)cc2)cc1 [Example 82, 2,5-Dimethyl-2H-pyrazole-3-carboxylic acid [(R)-1-[(S)-1-(4-aminomethyl-benzylcarbamoyl)-2-phenyl-ethylcarbamoyl]-2-(4-ethoxy-phenyl)-ethyl]-amide]	539	> 10000
CCOc1ccc(C[C@@H](NC(=O)CCc2ccccc2)C(=O)N[C@@H](Cc2ccccc2)C(=O)NCc2ccc(CN)cc2)cc1 [Example 86, (S)-N-(4-Aminomethyl-benzyl)-2-[(R)-3-(4-ethoxy-phenyl)-2-(3-phenyl-propionylamino)-propionylamino]-3-phenyl-propionamide]	423	> 10000
CCOc1ccc(C[C@@H](NC(=O)CCCc2ccccc2)C(=O)N[C@@H](Cc2ccccc2)C(=O)NCc2ccc(CN)cc2)cc1 [Example 87, N-[(R)-1-[(S)-1-(4-Aminomethyl-benzylcarbamoyl)-2-phenyl-ethylcarbamoyl]-2-(4-ethoxy-phenyl)-ethyl]-4-phenyl-butyramide]	755	3400
CCOc1ccc(C[C@@H](NC(=O)c2cccc(C(F)(F)F)c2)C(=O)N[C@@H](Cc2ccccc2)C(=O)NCc2ccc(CN)cc2)cc1 [Example 90, N-[(R)-1-[(S)-1-(4-Aminomethyl-benzylcarbamoyl)-2-phenyl-ethylcarbamoyl]-2-(4-ethoxy-phenyl)-ethyl]-3-trifluoromethyl-benzamide]	276	> 10000
CCOc1ccc(C[C@@H](NC(=O)CNC(=O)c2ccccc2)C(=O)N[C@@H](Cc2ccccc2)C(=O)NCc2ccc(CN)cc2)cc1 [Example 98, N-{[(R)-1-[(S)-1-(4-Aminomethyl-benzylcarbamoyl)-2-phenyl-ethylcarbamoyl]-2-(4-ethoxy-phenyl)-ethylcarbamoyl]-methyl}-benzamide]	576	5100
CCOc1ccc(C[C@@H](NS(=O)(=O)Cc2ccccc2)C(=O)N[C@@H](Cc2ccccc2)C(=O)NCc2ccc(CN)cc2)cc1 [Example 100, (R)-N-[(S)-1-(4-Aminomethyl-benzylcarbamoyl)-2-phenyl-ethyl]-3-(4-ethoxy-phenyl)-2-phenylmethanesulfonylamino-propionamide]	474	2900
CCOc1ccc(C[C@@H](NC(=O)CNS(=O)(=O)c2ccc(C)cc2)C(=O)N[C@@H](Cc2ccccc2)C(=O)NCc2ccc(CN)cc2)cc1 [Example 101, (S)-N-(4-Aminomethyl-benzyl)-2-{(R)-3-(4-ethoxy-phenyl)-2-[2-(toluene-4-sulfonylamino)-acetylamino]-propionylamino}-3-phenyl-propionamide]	1110	> 10000
CCOc1ccc(C[C@@H](NC(=O)Nc2ccc(Cl)cc2)C(=O)N[C@@H](Cc2ccccc2)C(=O)NCc2ccc(CN)cc2)cc1 [Example 102, (R)-N-[(S)-1-(4-Aminomethyl-benzylcarbamoyl)-2-phenyl-ethyl]-2-[3-(4-chloro-phenyl)-ureido]-3-(4-ethoxy-phenyl)-propionamide]	10000	9000
CCOc1ccc(C[C@@H](NC(=O)N(CC)Cc2ccccc2)C(=O)N[C@@H](Cc2ccccc2)C(=O)NCc2ccc(CN)cc2)cc1 [Example 103, (R)-N-[(S)-1-(4-Aminomethyl-benzylcarbamoyl)-2-phenyl-ethyl]-2-(3-benzyl-3-ethyl-ureido)-3-(4-ethoxy-phenyl)-propionamide]	10000	> 10000
CCOc1ccc(C[C@@H](NC(=O)c2ccc(Cl)nc2Cl)C(=O)N[C@@H](Cc2ccccc2)C(=O)NCc2ccc(CN)cc2)cc1 [Example 106, N-[(R)-1-[(S)-1-(4-Aminomethyl-benzylcarbamoyl)-2-phenyl-ethylcarbamoyl]-2-(4-ethoxy-phenyl)-ethyl]-2,6-dichloro-nicotinamide]	256	8400
CCOc1ccc(C[C@@H](NC(=O)c2cc(C)nc(Cl)c2)C(=O)N[C@@H](Cc2ccccc2)C(=O)NCc2ccc(CN)cc2)cc1 [Example 110, N-[(R)-1-[(S)-1-(4-Aminomethyl-benzylcarbamoyl)-2-phenyl-ethylcarbamoyl]-2-(4-ethoxy-phenyl)-ethyl]-2-chloro-6-methyl-isonicotinamide]	598	> 10000
CCOc1ccc(C[C@@H](NC(=O)c2cnc(C)s2)C(=O)N[C@@H](Cc2ccccc2)C(=O)NCc2ccc(CN)cc2)cc1 [Example 112, 2-Methyl-thiazole-5-carboxylic acid [(R)-1-[(S)-1-(4-aminomethyl-benzylcarbamoyl)-2-phenyl-ethylcarbamoyl]-2-(4-ethoxy-phenyl)-ethyl]-amide]	298	> 10000
CCOc1ccc(C[C@@H](NC(=O)c2nc(C)oc2C)C(=O)N[C@@H](Cc2ccccc2)C(=O)NCc2ccc(CN)cc2)cc1 [Example 113, 2,5-Dimethyl-oxazole-4-carboxylic acid [(R)-1-[(S)-1-(4-aminomethyl-benzylcarbamoyl)-2-phenyl-ethylcarbamoyl]-2-(4-ethoxy-phenyl)-ethyl]-amide]	455	> 10000

Next, values leading:

IC50 (Human plasma kallikrein) [nM]	IC50 (Human KLK1) [nM]	Compound
254	> 10000	CCOc1ccc(C[C@@H](NC(=O)c2cc3ccccc3s2)C(=O)N[C@@H](Cc2ccccc2)C(=O)NCc2ccc(CN)cc2)cc1 [Example 83, Benzo[b]thiophene-2-carboxylic acid[(R)-1-[(S)-1-(4-aminomethyl-benzylcarbamoyl)-2-phenyl-ethylcarbamoyl]-2-(4-ethoxy-phenyl)-ethyl]-amide]
99	3700	CCOc1ccc(C[C@@H](NC(=O)c2ccccc2Cl)C(=O)N[C@@H](Cc2ccccc2)C(=O)NCc2ccc(CN)cc2)cc1 [Example 89, N-[(R)-1-[(S)-1-(4-Aminomethyl-benzylcarbamoyl)-2-phenyl-ethylcarbamoyl]-2-(4-ethoxy-phenyl)-ethyl]-2-chloro-benzamide]
159	> 10000	CCOc1ccc(C[C@@H](NC(=O)c2ccc(C)nc2)C(=O)N[C@@H](Cc2ccccc2)C(=O)NCc2ccc(CN)cc2)cc1 [Example 104, N-[(R)-1-[(S)-1-(4-Aminomethyl-benzylcarbamoyl)-2-phenyl-ethylcarbamoyl]-2-(4-ethoxy-phenyl)-ethyl]-6-methyl-nicotinamide]
185	> 10000	CCOc1ccc(C[C@@H](NC(=O)c2cccnc2C)C(=O)N[C@@H](Cc2ccccc2)C(=O)NCc2ccc(CN)cc2)cc1 [Example 105, N-[(R)-1-[(S)-1-(4-Aminomethyl-benzylcarbamoyl)-2-phenyl-ethylcarbamoyl]-2-(4-ethoxy-phenyl)-ethyl]-2-methyl-nicotinamide]
133	7500	CCOc1ccc(C[C@@H](NC(=O)c2cnc(Cl)c(Cl)c2)C(=O)N[C@@H](Cc2ccccc2)C(=O)NCc2ccc(CN)cc2)cc1 [Example 107, N-[(R)-1-[(S)-1-(4-Aminomethyl-benzylcarbamoyl)-2-phenyl-ethylcarbamoyl]-2-(4-ethoxy-phenyl)-ethyl]-5,6-dichloro-nicotinamide]
232	> 10000	CCOc1ccc(C[C@@H](NC(=O)c2cc(F)nc(F)c2F)C(=O)N[C@@H](Cc2ccccc2)C(=O)NCc2ccc(CN)cc2)cc1 [Example 108, N-[(R)-1-[(S)-1-(4-Aminomethyl-benzylcarbamoyl)-2-phenyl-ethylcarbamoyl]-2-(4-ethoxy-phenyl)-ethyl]-2,3,6-trifluoro-isonicotinamide]
155	> 10000	CCOc1ccc(C[C@@H](NC(=O)CC(F)(F)F)C(=O)N[C@@H](Cc2ccccc2)C(=O)NCc2ccc(CN)cc2)cc1 [Example 109, N-[(R)-1-[(S)-1-(4-Aminomethyl-benzylcarbamoyl)-2-phenyl-ethylcarbamoyl]-2-(4-ethoxy-phenyl)-ethyl]-3,3,3-trifluoro-propionamide]
58	> 10000	CCOc1ccc(C[C@@H](NC(=O)c2sc(C)nc2C)C(=O)N[C@@H](Cc2ccccc2)C(=O)NCc2ccc(CN)cc2)cc1 [Example 111, 2,4-Dimethyl-thiazole-5-carboxylic acid [(R)-1-[(S)-1-(4-aminomethyl-benzylcarbamoyl)-2-phenyl-ethylcarbamoyl]-2-(4-ethoxy-phenyl)-ethyl]-amide]
